Calls of active or inactive are those of the source. No cut-off for these calls is given here.
What was measured:
Staphylococcus aureus [1] = assay: Antibacterial activity against Staphylococcus aureus ATCC 25923 by microbroth dilution method; type: functional, organism-based
Staphylococcus aureus [2] = assay: Antibacterial activity against methicillin-resistant Staphylococcus aureus ATCC BAA-41 by microbroth dilution method; type: functional, organism-based
Pseudomonas aeruginosa [3] = assay: Antibacterial activity against Pseudomonas aeruginosa ATCC 15442 by microbroth dilution method; type: functional, organism-based
HCT-116 [4] = assay: Cytotoxicity against human HCT116 cells assessed as reduction in cell viability by MTT assay; type: functional, cell-based
Staphylococcus aureus [5] = assay: Antibacterial activity against multi-resistant Staphylococcus aureus ATCC BAA-44 by microbroth dilution method; type: functional, organism-based
[6] = Antioxidant activity assessed as DPPH radical scavenging activity at > 50 uM and measure every 10 mins for 30 mins subsequently measured every 30 mins for 4 hrs by spectrophotometric method; type: functional
[7] = Metal chelating activity of the compound assessed as Fe2+-compound complex formation by measuring absorbance at > 50 uM in presence of ferrozine by spectrophotometric method
HCT-116 [8] = assay: Cytotoxicity against human HCT116 cells assessed as assessed as growth inhibition at 200 uM by MTT assay relative to control; type: functional; settings: read-out: GI
[9] = Stability of compound in methanol; type: physicochemical
Staphylococcus aureus [10] = assay: Antibacterial activity against Staphylococcus aureus ATCC 25923 assessed as growth inhibition at 0.125 mg/m by microbroth dilution method relative to control; type: functional
Pseudomonas aeruginosa [11] = assay: Antibacterial activity against Pseudomonas aeruginosa ATCC 15442 assessed as growth inhibition at 0.125 mg/ml by microbroth dilution method relative to control; type: functional; settings: read-out: GI
Staphylococcus aureus [12] = assay: Antibacterial activity against methicillin-resistant Staphylococcus aureus ATCC BAA-41 assessed as growth inhibition at 0.125 mg/m by microbroth dilution method relative to control; type: functional

| SMILES | Activity (Staphylococcus aureus [1]) | Activity (Staphylococcus aureus [2]) | Activity (Pseudomonas aeruginosa [3]) | Activity (HCT-116 [4]) | Activity (Staphylococcus aureus [5]) | Activity [6] | Activity [7] | also measured |
| --- | --- | --- | --- | --- | --- | --- | --- | --- |
| CC(=O)Cc1cc(O)cc2c1CC(C)C(O)(C(C)C(=O)/C(C)=C/C(C)=C/C(C)C(C)O)O2 (configuration not stated) | inactive | inactive | inactive | inactive | inactive | inactive | inactive |  |
| COc1cc(O)cc(CC(C)=O)c1C[C@@H](C)C(=O)[C@@H](C)C(=O)/C(C)=C/C(C)=C/[C@H](C)[C@H](C)O | inactive | inactive | inactive | inactive | inactive | inactive | inactive |  |
| COc1cc([C@@H]2c3cc4c(cc3[C@@H](O[C@@H]3O[C@@H]5CO[C@@H](C)O[C@H]5[C@H](O)[C@H]3O)[C@H]3COC(=O)[C@H]23)OCO4)cc(OC)c1O [ETOPOSIDE] |  |  |  |  |  |  |  | inhibition of growth at 200 µM (HCT-116 [8]): 82.8% |
| C=C[C@]1(C)C=C2C(=O)[C@@]3(O)OC(=O)[C@@]4(CCCC(C)(C)[C@H]34)[C@@]2(O)CC1 [SPHAEROPSIDIN A] |  |  |  |  |  |  |  | IC50 (Staphylococcus aureus [1]): 32.6 µM; IC50 (Staphylococcus aureus [2]): 35.3 µM; IC50 (Pseudomonas aeruginosa [3]): > 100 µM; IC50 (HCT-116 [4]): 4.9 µM; Stability [9]: Stable |
| C=C[C@]1(C)C=C2C(=O)[C@]3(O)OC(=O)[C@@]4(CCCC(C)(C)[C@@H]43)[C@H]2CC1 |  |  |  |  |  |  |  | IC50 (Staphylococcus aureus [1]): 71.6 µM; IC50 (Staphylococcus aureus [2]): 77.8 µM; IC50 (Pseudomonas aeruginosa [3]): > 100 µM; IC50 (HCT-116 [4]): 32.7 µM; Stability [9]: Unstable |
| NC[C@H]1O[C@H](O[C@H]2[C@H](O)[C@@H](O[C@H]3O[C@H](CO)[C@@H](O)[C@H](N)[C@H]3O)[C@H](N)C[C@@H]2N)[C@H](O)[C@@H](O)[C@@H]1O [KANAMYCIN] |  |  |  |  |  |  |  | growth inhibition (GI) (Staphylococcus aureus [10]): 100%; inhibition of growth at 125 µg/mL (Pseudomonas aeruginosa [11]): 100% |
| CC(=O)Cc1cc(O)cc(O)c1CC(C)C(=O)C(C)C(=O)/C(C)=C/C(C)=C/C(C)C(C)O (configuration not stated) | inactive | inactive | inactive | inactive | inactive | inactive | inactive |  |
| CN[C@H](CC(C)C)C(=O)N[C@H]1C(=O)N[C@@H](CC(N)=O)C(=O)N[C@H]2C(=O)N[C@H]3C(=O)N[C@H](C(=O)N[C@H](C(=O)O)c4cc(O)cc(O)c4-c4cc3ccc4O)[C@H](O)c3ccc(c(Cl)c3)Oc3cc2cc(c3O[C@@H]2O[C@H](CO)[C@@H](O)[C@H](O)[C@H]2O[C@H]2C[C@](C)(N)[C@H](O)[C@H](C)O2)Oc2ccc(cc2Cl)[C@H]1O [VANCOMYCIN] |  |  |  |  |  |  |  | growth inhibition (GI) (Staphylococcus aureus [12]): 100% |
| COc1cc(O)cc(CC(C)=O)c1C[C@@H](C)C(=O)[C@H](C)C(=O)/C(C)=C/C(C)=C/[C@H](C)[C@H](C)O | inactive | inactive | inactive | inactive | inactive | inactive | inactive |  |

From ChEMBL document CHEMBL4414597, “Polyketides from Marine-Derived Aspergillus porosus: Challenges and Opportunities for Determining Absolute Configuration” (J Nat Prod, 2019)
